Source: patent US10159653B2, “Methods and compositions for increasing energy expenditure using cinnamaldehyde” (NESTEC S.A., priority 2013, dated 2018)

What was measured:
[1] = test system: Human subjects; assay: Nose temperature after ingestion; type: in vivo; settings: fifteen minutes following ingestion
Procedure: The nose temperature of the subjects was analyzed over the fifteen minutes following ingestion of the various compounds.

[2] = test system: Human subjects; assay: Comparative taste testing; type: in vivo; settings: 4.8 ppm capsaicin or 350 ppm cinnamaldehyde
Procedure: Human subjects were administered a composition comprising 4.8 ppm capsaicin or 350 ppm cinnamaldehyde. […] 87.9% of the participants judged capsaicin intense to very intense, compared to only 20.5% for cinnamaldehyde. To achieve a similar effect on fat oxidation of capsaicin and cinnamaldehyde, the dose of capsaicin is about 1.5 times less than the maximum that can be used as a flavor (7 ppm according to Fenaroli's Handbook), and the dose of cinnamaldehyde is about 17.5 times less than the maximum that can be used as a flavor (6191.0 ppm according to Fenaroli's Handbook).

[3] = Ludy et al. 2011; cited from earlier work
[4] = test system: Human subjects; assay: Energy expenditure after ingestion (indirect calorimetry); type: in vivo
Procedure: Human subjects were administered placebo, a cooling flavor, capsaicin or cinnamaldehyde. The energy expenditure was measured over the eighty minutes following ingestion. […] The increased sympathetic activity identified by measuring the facial temperature (increased blood flow on the chin) might explain the increased energy expenditure measured by indirect calorimetry.

[5] = test system: Human subjects; assay: Postprandial fat oxidation after ingestion; type: in vivo
Procedure: The postprandial fat oxidation was measured over the 90 minutes following ingestion of the various compounds.

[6] = test system: Human subjects; assay: Chin temperature after ingestion (sympathetic nervous system activity); type: in vivo
Procedure: The chin temperature of the subjects was measured over the eighty minutes following ingestion of the various compounds. […] The increased sympathetic activity identified by measuring the facial temperature (increased blood flow on the chin) might explain the increased energy expenditure measured by indirect calorimetry.

[7] = biological target: T1, TRPA1 (Mus musculus, UniProt Q8BLA8); assay: Pre-clinical study, single dose: gastric emptying and short term food intake; type: in vivo; settings: single dose 250 mg/kg bw
T1 construct: endogenous in cells; host or cells: living animals of the pre-clinical study (probably mice)

[8] = test system: obese mice; assay: Pre-clinical study, chronic ingestion in food; type: in vivo; settings: 0.2% in food
Procedure: The findings of the inventors were especially surprising in that a low dose (1.25 mg/kg body weight per day) of cinnamaldehyde at a flavoring range can provide an effect after a single ingestion. In a pre-clinical study by the inventors, the dose of cinnamaldehyde was about 250 mg/kg body weight per day, with chronic ingestion (effect on body weight gain and insulin sensitivity).

[9] = test system: TRPA1; settings: read-out: EC50 of TRPA1 activation; cited from earlier work
[10] = biological target: TRPV1 (Homo sapiens, UniProt Q8NER1); settings: cited from earlier work
[11] = biological target: TRPM8 (Homo sapiens, UniProt Q7Z2W7); settings: cited from earlier work
[12] = flavoring level of cinnamaldehyde judged significantly less intense than capsaicin

T1 sequence (Q8BLA8 whole entry): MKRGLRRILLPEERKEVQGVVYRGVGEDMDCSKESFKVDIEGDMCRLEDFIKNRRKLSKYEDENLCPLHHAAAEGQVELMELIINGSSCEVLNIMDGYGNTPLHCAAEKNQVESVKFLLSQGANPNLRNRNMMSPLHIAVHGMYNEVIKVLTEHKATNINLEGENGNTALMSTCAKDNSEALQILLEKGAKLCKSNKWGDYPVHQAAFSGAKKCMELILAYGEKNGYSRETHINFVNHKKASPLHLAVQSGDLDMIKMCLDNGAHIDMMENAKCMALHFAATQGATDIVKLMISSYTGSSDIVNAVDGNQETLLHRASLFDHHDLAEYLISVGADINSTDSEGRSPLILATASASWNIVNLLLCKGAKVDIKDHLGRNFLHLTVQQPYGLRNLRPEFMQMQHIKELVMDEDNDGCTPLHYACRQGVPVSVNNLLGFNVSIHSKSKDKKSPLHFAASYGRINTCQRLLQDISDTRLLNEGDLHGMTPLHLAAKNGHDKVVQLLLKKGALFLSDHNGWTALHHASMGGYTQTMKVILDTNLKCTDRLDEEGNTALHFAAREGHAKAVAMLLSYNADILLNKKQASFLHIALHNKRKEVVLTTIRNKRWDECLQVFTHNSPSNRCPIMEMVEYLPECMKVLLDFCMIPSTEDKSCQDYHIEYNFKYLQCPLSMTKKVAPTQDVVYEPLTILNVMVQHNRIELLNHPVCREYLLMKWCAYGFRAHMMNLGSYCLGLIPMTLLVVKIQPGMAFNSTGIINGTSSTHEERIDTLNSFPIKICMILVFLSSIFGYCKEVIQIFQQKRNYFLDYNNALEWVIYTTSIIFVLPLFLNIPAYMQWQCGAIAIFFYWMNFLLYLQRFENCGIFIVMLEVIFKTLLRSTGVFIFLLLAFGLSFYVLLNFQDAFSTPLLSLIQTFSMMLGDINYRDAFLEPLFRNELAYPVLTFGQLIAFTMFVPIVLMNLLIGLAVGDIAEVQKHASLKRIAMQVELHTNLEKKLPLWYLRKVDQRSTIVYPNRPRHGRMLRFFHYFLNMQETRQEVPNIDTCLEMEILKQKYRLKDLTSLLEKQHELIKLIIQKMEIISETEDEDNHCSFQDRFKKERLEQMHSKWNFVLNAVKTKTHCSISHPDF
Chain of TRPM8 (Q7Z2W7 whole entry, species assumed): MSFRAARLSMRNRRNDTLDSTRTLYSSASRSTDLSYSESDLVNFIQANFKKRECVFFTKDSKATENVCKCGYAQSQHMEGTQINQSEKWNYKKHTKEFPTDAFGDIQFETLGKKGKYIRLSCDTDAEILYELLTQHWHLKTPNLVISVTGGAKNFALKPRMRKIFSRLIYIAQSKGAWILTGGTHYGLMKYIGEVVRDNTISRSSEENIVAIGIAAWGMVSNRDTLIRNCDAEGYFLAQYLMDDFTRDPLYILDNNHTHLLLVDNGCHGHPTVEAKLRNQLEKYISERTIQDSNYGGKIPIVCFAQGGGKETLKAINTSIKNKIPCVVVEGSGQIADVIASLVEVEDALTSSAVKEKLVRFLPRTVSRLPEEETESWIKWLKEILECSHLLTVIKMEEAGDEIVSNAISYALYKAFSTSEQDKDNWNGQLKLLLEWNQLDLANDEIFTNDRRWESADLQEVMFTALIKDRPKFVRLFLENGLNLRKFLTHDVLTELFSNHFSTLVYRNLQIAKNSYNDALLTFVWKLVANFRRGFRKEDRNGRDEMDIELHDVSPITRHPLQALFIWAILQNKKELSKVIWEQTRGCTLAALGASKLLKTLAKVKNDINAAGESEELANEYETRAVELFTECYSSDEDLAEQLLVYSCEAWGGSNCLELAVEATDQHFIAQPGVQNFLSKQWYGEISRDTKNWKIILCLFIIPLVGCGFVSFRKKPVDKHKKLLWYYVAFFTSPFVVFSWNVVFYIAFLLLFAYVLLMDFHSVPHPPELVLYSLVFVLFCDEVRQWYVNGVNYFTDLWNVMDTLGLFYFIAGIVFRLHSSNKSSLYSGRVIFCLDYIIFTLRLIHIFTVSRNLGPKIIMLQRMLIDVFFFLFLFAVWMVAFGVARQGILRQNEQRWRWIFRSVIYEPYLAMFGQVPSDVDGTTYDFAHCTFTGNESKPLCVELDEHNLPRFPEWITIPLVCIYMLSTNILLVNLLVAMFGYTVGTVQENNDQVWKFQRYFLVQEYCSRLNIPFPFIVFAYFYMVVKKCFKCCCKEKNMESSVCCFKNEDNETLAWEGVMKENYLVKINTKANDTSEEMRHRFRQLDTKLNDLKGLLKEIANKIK
Chain of TRPV1 (Q8NER1 whole entry, species assumed): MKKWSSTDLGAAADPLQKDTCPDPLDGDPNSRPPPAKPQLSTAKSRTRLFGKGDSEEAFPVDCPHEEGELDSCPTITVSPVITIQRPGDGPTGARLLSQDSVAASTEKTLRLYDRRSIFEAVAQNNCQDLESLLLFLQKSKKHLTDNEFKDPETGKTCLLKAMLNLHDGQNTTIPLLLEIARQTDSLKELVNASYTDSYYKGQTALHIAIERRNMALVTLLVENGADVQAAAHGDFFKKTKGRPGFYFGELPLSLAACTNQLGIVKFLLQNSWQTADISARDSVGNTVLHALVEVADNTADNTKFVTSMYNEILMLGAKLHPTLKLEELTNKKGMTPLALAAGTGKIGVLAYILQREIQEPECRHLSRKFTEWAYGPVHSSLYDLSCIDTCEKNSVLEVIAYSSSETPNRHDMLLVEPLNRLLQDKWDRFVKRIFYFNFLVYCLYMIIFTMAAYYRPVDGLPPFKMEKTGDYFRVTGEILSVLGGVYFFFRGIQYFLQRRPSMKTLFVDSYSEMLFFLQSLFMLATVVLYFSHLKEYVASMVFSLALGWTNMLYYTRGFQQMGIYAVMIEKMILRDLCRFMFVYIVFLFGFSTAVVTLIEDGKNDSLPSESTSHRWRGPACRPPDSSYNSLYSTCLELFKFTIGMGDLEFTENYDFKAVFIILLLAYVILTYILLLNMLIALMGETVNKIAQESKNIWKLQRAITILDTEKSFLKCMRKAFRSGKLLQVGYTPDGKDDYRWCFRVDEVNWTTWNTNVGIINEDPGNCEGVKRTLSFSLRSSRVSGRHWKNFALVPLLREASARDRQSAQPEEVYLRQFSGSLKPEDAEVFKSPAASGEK

SMILES | nose temperature [1] | participants who judged the taste intense to very intense [2] [%] | efficient dose for increasing energy expenditure and fat oxidation [3] [mg] | impact on energy expenditure compared to capsaicin [4, 12] | energy expenditure compared to placebo ([4]; human subjects, eighty minutes following ingestion, time course and AUC) | effect on fat oxidation compared to capsaicin [5, 12] | postprandial fat oxidation compared to placebo ([5]; human subjects, 90 minutes following ingestion, time course and AUC) | impact on sympathetic nervous system activity compared to capsaicin [6, 12] | chin temperature relative to baseline ([6]; human subjects, eighty minutes following ingestion) | short term food intake [7] | gastric emptying ([7]; through TRPA1 activation) | lean mass gain [8] | body weight gain ([8]; about 250 mg/kg bw/day) | food intake ([8]; about 250 mg/kg bw/day) | insulin sensitivity ([8]; about 250 mg/kg bw/day) | fat mass gain ([8]; p 0.06) | EC50 [9] [µM] | activation of TRPV1 [10] | activation of TRPM8 [11]
COc1cc(CNC(=O)CCCC/C=C/C(C)C)ccc1O [capsaicin] | increase nose temperatures | 87.9 | ≥ 20 |  |  |  |  |  |  |  |  |  |  |  |  |  |  |  | 
O=CC=Cc1ccccc1 [cinnamaldehyde] | increase nose temperatures |  |  | significantly higher impact | increased | equivalent effect | maintained at higher levels | significantly higher impact | increases chin temperature for a prolonged time | reduced short term food intake | delayed gastric emptying | no effect | reduces body weight gain | without affecting their food intake | improves their insulin sensitivity | tendency to decrease | ~60 | not | not
